Results as given in patent US8048918B2, “Treatment of hyperproliferative diseases” (Vampex Limited, priority 2000, dated 2011).
Entries after “also recorded” stand apart in the source; their conditions may differ. Where no end group is shown, it is not given here.

Experiments:
[1] = tested on: hyperproliferative psoriatic keratinocytes; test: proliferation assay (Coulter cell counter) on hyperproliferative psoriatic keratinocytes; assay type: cell-based, human
Source text: Biopsy samples are obtained from psoriatic patients. Skin from patients with chronic plaque psoriasis are obtained with informed consent. Ethical approval has been obtained previously from The South Sheffield Regional Ethics Committee. Biopsies are all be taken from the lower back in psoriasis patients aged 40 to 60.
Remove subcutaneous tissue and some of the dermis with scissors, dissect skin into 1×2 cm pieces with a scalpel. Rinse the tissue 2-5 times in PBSA. Float skin samples on 0.6% Trypsin in PBSA (pH 7.4) ON at 4° C. (or alternatively for 20-30 min at 37° C.)
The separation of the epidermis is carefully monitored. When the first detachment of the epidermis is visible at the cut edges of the skin sample place the pieces (dermis-side down) in 100 mm Petri dishes. Irrigate with 5 ml of complete culture medium (incl. serum). Peel off the epidermis with forceps and collect it in a 50 ml centrifuge tube containing 20 ml of complete culture medium (KGM). Separate the keratinocytes from the epidermal cells by gently pipetting and sieving through a nylon gauze of 100 μm mesh. Wash the isolated epidermal cells twice in KGM by centrifugation at 100 g for 10 min, and count the total number of cells.
Cells are seeded at 37° C. in KGM medium at a density of 2500 cells/cm^2 in a 25 cm^2 cell culture flask. The medium is replaced every 48 hours and cells are passaged when confluent.
Cell Seeding and Analysis: Purchased secondary cultures or primary cultures (from donor skin) are seeded at 3500 cells/cm^2 in K-SFM 25 cm^2 tissue culture flasks. The medium is changed (5 ml per flask) the day after seeding and every other day thereafter. At 70-80% confluence the cells are subcultured by seeding 3500 cells per well in 24 well cell culture plates, each well containing 500 μl of K-SFM. One well plate is seeded for each treatment. After allowing one day for settling the cells are switched to experimental medium (500 μl per well). Stock solutions of additions are as before. Experimental treatments are as follows:
The medium is replaced every other day. Cells are harvested by trypsinisation. 500 μl Trypsin/EDTA is added to each well to be harvested and then aspirated off. The well plates are incubated for 5-6 min at 37° C. 500 μl PBS is added to the wells and the cells are resuspended. The cell suspension is added to 20 ml Isoton solution in a Coulter counter “Accuvette” and the cells are counted. On each harvest, 3 wells of cells are counted for each treatment and 3 counts were made for each well.
Cell number is calculated as follows: Coulter Counter removes 500 μl of 20 ml sample ( 1/40). Multiply cell count by 40 to obtain cell number in cup, this equals the total number of cells in one well (approximately, as ˜10% taken out for viability test). […]

[2] = tested on: hyperproliferative psoriatic keratinocytes; test: differentiation assay (K1/K10 mRNA, Northern blot / RT-PCR) on hyperproliferative psoriatic keratinocytes; assay type: cell-based, human
Protocol: RNA extraction is carried out according to the manufacturers instructions using the RNeasy kit (QIAGEN). 20 μg of RNA for each treatment was separated on a 1.2% agarose (1.8% formaldehyde) gel and transferred onto a nylon membrane (Zeta probe GT membranes, BioRad) by capillary transfer. The RNA is fixed to the membrane by UV crosslinking. DNA probes for the differentiation markers K1 and K10(50 ng) are labelled with [α-^32P] dCTP using the Prime-It RmT Primer labeling kit (Stratagene) following the manufacturer's instructions. Unincorporated nucleotides are removed by elution through a Microspin G25 column (Pharmacia Biotech). The blots are wetted in 0.25M sodium phosphate (pH 7.2)/7% SDS for 30 minutes at 65° C. Fresh hybridisation solution is added along with the radiolabelled probe and the blot is hybridised overnight at 65° C.
The blot is washed for 2×5 minutes in 0.25M sodium phosphate (pH 7.2), 7% SDS and then for 2×5 minutes in 20 mM sodium phosphate (pH 7.2), 5% SDS at 65° C. The wash steps are repeated until a clear distinction can be made between the signal and non-specific background. The blot is exposed to x-ray film for 24 hours before developing.
Synthesis of mRNA for the K1 and K10 keratin (markers for commitment to terminal differentiation) is examined by quantitative reverse transcription PCR (RT-PCR). Synthesis of mRNA for Cyclin D (a marker for cell proliferation) is also assayed by RT-PCR. Standard protocol for RT-PCR is followed as recommended by the manufacturer of the PCR machine (PE 2400) using 1 μg RNA from each keratinocyte culture. Suitable primers for RT-PCR are designed based on the human sequences of K1 and K10 deposited in GenBank. Northern blots are also performed: cells are harvested, RNA extracted and 20 μg RNA loaded into each well of a formaldehyde/agarose gel. The RNA is blotted onto a nylon membrane by capillary transfer and expression of K1 mRNA is determined by Northern hybridisation with a radiolabelled DNA probe.
Next, hyperproliferative epidermal keratinocytes are obtained, isolated and cultured as described above in Example 3. Hyperproliferative psoriatic keratinocytes are cultured as described above in serum-free medium with or without the addition of […] human retinol binding protein. At confluence the cells are treated (see Table 3 below) for 96 hours with peptides to 6 μM (medium replaced after 48 hours). Treatments shown in the Table 3 are for duplicate T-25 flasks (2×7 ml for each treatment).
The final concentrations are: Ca^2+ 1.2 mM, RBP 0.6 μM, peptides 6 μM.
Expression of K1 and K10 markers is determined as described above in Example 4. […]
Synthesis of mRNA for markers of proliferation and differentiation is also examined by semi-quantitative reverse transcription PCR (RT-PCR). […]

COS-1 cells = test: proliferation assay of COS-1 cells (Coulter counter); assay type: cell-based; details: P142 1 mg/ml, peptides 6 μM; 24 and 48 hours after treatment; FIG. 7
Protocol: (§1) […] (COS1 and COS7) are purchased from the European Cell Culture Collection, thawed and propagated according to the instructions from the supplier; cells are cultured essentially in the same manner as for normal human keratinocytes (Example 3 above), except that cells are seeded at 20 000 cells/cm^2, with only one treatment with antibody P142, control immunoglobulin, peptide 589, peptide 592 or control peptide 24 hrs after seeding.
(§2) Proliferation is assayed by counting cells in a Coulter counter, as described above.

COS-7 cells = test: proliferation assay of COS-7 cells (Coulter counter); assay type: cell-based; details: P142 1 mg/ml, peptides 6 μM; 24 and 48 hours after treatment; FIG. 8
Protocol: as §1, §2

[3] = tested on: human dermal fibroblast cells; test: proliferation assay of human dermal fibroblast cells; assay type: cell-based; details: P142 1 mg/ml, peptides 6 μM; 24 hours and 4 days after treatment; FIG. 9
Protocol: Fibroblast cell culture is performed essentially as described for culture of hyperproliferative psoriatic keratinocytes (Example 3), except that following irrigation with complete culture medium, the dermal portion is incubated with 1 mg/ml of collagenase (Sigma) in 20 ml DMEM in a 50 ml centrifuge tube for 16 hours at 37° C. Then 20 ml DMEM containing 5% foetal calf serum and 1% antibiotic/antimycotic solution (Gibco) is added and the cells seeded at 37° C. in DMEM medium+additions at a density of 2500 cells/cm^2 in a 25 cm^2 cell culture flask. Medium is replaced every 48 hours and cells passaged when confluent.
Fibroblast cell culture and experiments are performed essentially as described for culture of hyperproliferative psoriatic keratinocytes (above), except that following irrigation with complete culture medium, the dermal portion is processed further. Reference is made to fibroblast culture protocols set out above.
Proliferation of cells is assayed by direct cell counting essentially as for determination of proliferation in keratinocyte cell cultures. RDH, ADH, RalDH inhibitors are found to reduce proliferation.

[4] = peptides 6 μM, Ca2+ 1.2 mM, RBP 0.6 μM

Compound | keratinocyte proliferation on addition of retinol or retinoic acid ([1]; 1.2 mM Ca2+, 2 μM ROL, FIG. 10) | effect of RBP or ROL on differentiation ([2]; under differentiation pressure from 1.2 mM calcium) | effect on RBP-increased proliferation [1, 4] | differentiation (expression of K1 and K10 markers) [2, 4] | proliferation of Cos-1 cells (cell numbers) (COS-1 cells) | proliferation of Cos-7 cells (cell numbers) (COS-7 cells) | fibroblast proliferation (cell numbers) [3]
CC1=C(/C=C/C(C)=C/C=C/C(C)=C/CO)C(C)(C)CCC1 [retinol, (2E,4E,6E,8E)-3,7-dimethyl-9-(2,6,6-trimethylcyclohex-1-en-1-yl)nona-2,4,6,8-tetraen-1-ol, reference compound] | induced | inhibition of differentiation |  |  |  |  | 
MKYWGVASFLQKGND [Peptide 592] |  |  | reversed | reversed; also recorded: same effect | marked reduction in proliferation | marked reduction in proliferation | greater reduction in proliferation
